According to the CheMixHub viscosity set:
Where “and” joins values, the source holds several entries; their conditions need not be identical. Identical values can stand only once.

Test: xn = mol fraction of the nth substance listed

ClC(Cl)(Cl)Cl + C[N+](=O)[O-]
Settings	viscosity [mPa·s]
298 K, 101.3 kPa, x1 = 0.0959	0.636
298 K, 101.3 kPa, x1 = 0.1961	0.655
298 K, 101.3 kPa, x1 = 0.3609	0.702
298 K, 101.3 kPa, x1 = 0.5088	0.751
298 K, 101.3 kPa, x1 = 0.7487	0.805
298.15 K, 101 kPa, x2 = 0.1023	0.884
298.15 K, 101 kPa, x2 = 0.1662	0.8265
298.15 K, 101 kPa, x2 = 0.2011	0.8405
298.15 K, 101 kPa, x2 = 0.2958	0.8074
298.15 K, 101 kPa, x2 = 0.3102	0.7692
298.15 K, 101 kPa, x2 = 0.3946	0.7776
298.15 K, 101 kPa, x2 = 0.4351	0.7285
298.15 K, 101 kPa, x2 = 0.4978	0.7481
298.15 K, 101 kPa, x2 = 0.5452	0.6969
298.15 K, 101 kPa, x2 = 0.6013	0.7175
298.15 K, 101 kPa, x2 = 0.6424	0.6735
298.15 K, 101 kPa, x2 = 0.701	0.6857
298.15 K, 101 kPa, x2 = 0.7297	0.6556
298.15 K, 101 kPa, x2 = 0.799	0.6627
298.15 K, 101 kPa, x2 = 0.8077	0.6427
298.15 K, 101 kPa, x2 = 0.878	0.6339
298.15 K, 101 kPa, x2 = 0.9009	0.6481
298.15 K, 101 kPa, x2 = 0.9419	0.6295
303.15 K, 101 kPa, x2 = 0.1	0.7718
303.15 K, 101 kPa, x2 = 0.1023	0.8319
303.15 K, 101 kPa, x2 = 0.2	0.7427
303.15 K, 101 kPa, x2 = 0.2011	0.7922
303.15 K, 101 kPa, x2 = 0.2958	0.7599
303.15 K, 101 kPa, x2 = 0.3	0.7058
303.15 K, 101 kPa, x2 = 0.3946	0.735
303.15 K, 101 kPa, x2 = 0.4	0.6831
303.15 K, 101 kPa, x2 = 0.4978	0.7052
303.15 K, 101 kPa, x2 = 0.5	0.6569
303.15 K, 101 kPa, x2 = 0.6	0.6415
303.15 K, 101 kPa, x2 = 0.6013	0.6783
303.15 K, 101 kPa, x2 = 0.7	0.624
303.15 K, 101 kPa, x2 = 0.701	0.6511
303.15 K, 101 kPa, x2 = 0.799	0.6308
303.15 K, 101 kPa, x2 = 0.8	0.6126
303.15 K, 101 kPa, x2 = 0.9	0.6123
303.15 K, 101 kPa, x2 = 0.9009	0.6177
308.15 K, 101 kPa, x2 = 0.1	0.7423
308.15 K, 101 kPa, x2 = 0.1023	0.7884
308.15 K, 101 kPa, x2 = 0.2	0.6974
308.15 K, 101 kPa, x2 = 0.2011	0.7475
308.15 K, 101 kPa, x2 = 0.2958	0.7146
308.15 K, 101 kPa, x2 = 0.3	0.668
308.15 K, 101 kPa, x2 = 0.3946	0.6899
308.15 K, 101 kPa, x2 = 0.4	0.6479
308.15 K, 101 kPa, x2 = 0.4978	0.6672
308.15 K, 101 kPa, x2 = 0.5	0.626
308.15 K, 101 kPa, x2 = 0.6	0.6063
308.15 K, 101 kPa, x2 = 0.6013	0.6432
308.15 K, 101 kPa, x2 = 0.7	0.5927
308.15 K, 101 kPa, x2 = 0.701	0.6169
308.15 K, 101 kPa, x2 = 0.799	0.5981
308.15 K, 101 kPa, x2 = 0.8	0.5834
308.15 K, 101 kPa, x2 = 0.9	0.5735
308.15 K, 101 kPa, x2 = 0.9009	0.5901
313.15 K, 101 kPa, x2 = 0.1023	0.7324
313.15 K, 101 kPa, x2 = 0.2011	0.6952
313.15 K, 101 kPa, x2 = 0.2958	0.674
313.15 K, 101 kPa, x2 = 0.3946	0.648
313.15 K, 101 kPa, x2 = 0.4978	0.6232
313.15 K, 101 kPa, x2 = 0.6013	0.6053
313.15 K, 101 kPa, x2 = 0.701	0.5841
313.15 K, 101 kPa, x2 = 0.799	0.5675
313.15 K, 101 kPa, x2 = 0.9009	0.5621
318 K, 101.3 kPa, x1 = 0.0897	0.5256
318 K, 101.3 kPa, x1 = 0.1941	0.5442
318 K, 101.3 kPa, x1 = 0.3589	0.5822
318 K, 101.3 kPa, x1 = 0.5073	0.6189
318 K, 101.3 kPa, x1 = 0.7644	0.6719
318.15 K, 101 kPa, x2 = 0.1	0.6487
318.15 K, 101 kPa, x2 = 0.2	0.6201
318.15 K, 101 kPa, x2 = 0.3	0.5962
318.15 K, 101 kPa, x2 = 0.4	0.5782
318.15 K, 101 kPa, x2 = 0.5	0.5609
318.15 K, 101 kPa, x2 = 0.6	0.546
318.15 K, 101 kPa, x2 = 0.7	0.5328
318.15 K, 101 kPa, x2 = 0.8	0.5246
318.15 K, 101 kPa, x2 = 0.9	0.5207

CCc1ccc(O)cc1 + C[N+](C)(C)CCO.[Cl-]
298.15 K, 101.33 kPa
Settings	viscosity
x1 = 0.7	143.3 mPa·s
x1 = 0.8	84.18 mPa·s and 62.12 mPa·s and 53.08 mPa·s
x1 = 0.9	49.12 mPa·s

CCN(CC)CC + Cc1cc(C)cc(C)c1
viscosity [mPa·s], 101 kPa
Settings	x2 = 0.1033	x2 = 0.2154	x2 = 0.2645	x2 = 0.3959	x2 = 0.5072	x2 = 0.6007	x2 = 0.7132	x2 = 0.7989	x2 = 0.8692
293.15 K	0.386	0.41	0.422	0.453	0.484	0.517	0.56	0.593	0.628
303.15 K	0.35	0.369	0.378	0.407	0.432	0.462	0.497	0.526	0.557
313.15 K	0.315	0.334	0.342	0.368	0.391	0.416	0.449	0.473	0.5
323.15 K	0.288	0.304	0.312	0.335	0.357	0.378	0.407	0.429	0.452

CC(C)[O-].CC(C)[O-].CC(C)[O-].CC(C)[O-].[Ti+4] + Cc1ccc(C)cc1
viscosity [mPa·s], 101.3 kPa
Settings	x1 = 0.0401	x1 = 0.0871	x1 = 0.1382	x1 = 0.1994	x1 = 0.2719	x1 = 0.3593	x1 = 0.4654	x1 = 0.5987	x1 = 0.77
293.15 K	0.671	0.7098	0.7652	0.8373	0.9143	1.042	1.235	1.53	2.053
303.15 K	0.5881	0.6215	0.6649	0.7153	0.7695	0.855	0.9724	1.137	1.398
313.15 K	0.5226	0.5494	0.5813	0.6238	0.6641	0.7258	0.8058	0.9111	1.063
323.15 K	0.4655	0.4896	0.5162	0.5501	0.5849	0.6326	0.6922	0.7664	0.871
